Experiments:
[1] = molecular target: PD-1/PD-L1 protein/protein interaction (recombinant human PD-L1 and human PD-1) (Homo sapiens (Human), UniProt Q9NZQ7); assay: Homogeneous Time-Resolved Fluorescence (HTRF) PD-1/PD-L1 binding assay
Outline: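 Human PD-L1 (19-238, C-His; 10 nM final) and PD-1 (25-167, C-Fc; 3 nM final) preincubated 40 min with inhibitor in PBS pH 7.4, 0.05% Tween-20, 0.1% BSA, 1% DMSO, 25 °C. Eu-anti-human IgG (1 nM) and anti-His-APC (20 nM) added for 60 min; 665/620 nm ratio; IC50 from percent-control curves.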

[2] = system: U2OS/PD-L1 cells and Jurkat-PD-1-SHP cells; assay: Src homology region 2 domain-containing phosphatase (SHP) assay; format: cell-based; settings: Homo sapiens, U2OS
Outline: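 U2OS/PD-L1 and Jurkat-PD-1-SHP cells (5000 each per well) were co-incubated with compound for 2 h at 37 °C in RPMI1640 with 1% FBS, 0.05% DMSO final. PathHunter chemiluminescence was read after 1 h at room temperature, and IC50 was fitted from percent of DMSO-control activity.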

[3] = system: PD-L1 aAPC/CHO-K1 cells and Jurkat-PD-1-NFAT effector cells; assay: Nuclear factor of activated T-cells (NFAT) assay; format: cell-based; settings: Cricetulus griseus, CHO-K1
Outline: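 CHO-K1 cells expressing PD-L1 aAPC were co-cultured with Jurkat-PD-1-NFAT effector cells in RPMI 1640 with 1% FBS and compound (0.4% DMSO; top concentration 2 μM) for 24 h at 37 °C. Bio-Glo luminescence was read, fold induction normalised to DMSO wells, and EC50 fitted from percent of control compound activity.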

PD-L1 = PD-L1 (Homo sapiens (Human), UniProt Q9NZQ7); assay: PD-L1 whole blood internalization assay; format: cell-based; settings: 24 HR, PD-L1 expression on CD14+ cells, human interferon γ
Chain of PD-L1 (Q9NZQ7 19-290): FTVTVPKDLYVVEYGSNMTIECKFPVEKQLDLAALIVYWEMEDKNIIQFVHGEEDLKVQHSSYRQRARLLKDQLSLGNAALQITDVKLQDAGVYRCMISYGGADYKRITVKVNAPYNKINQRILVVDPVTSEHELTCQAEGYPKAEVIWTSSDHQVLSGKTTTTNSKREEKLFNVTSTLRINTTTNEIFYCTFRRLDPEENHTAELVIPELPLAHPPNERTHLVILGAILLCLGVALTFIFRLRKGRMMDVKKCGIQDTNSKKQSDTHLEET

Chain of PD-1/PD-L1 protein/protein interaction (recombinant human PD-L1 and human PD-1) (Q9NZQ7 19-238): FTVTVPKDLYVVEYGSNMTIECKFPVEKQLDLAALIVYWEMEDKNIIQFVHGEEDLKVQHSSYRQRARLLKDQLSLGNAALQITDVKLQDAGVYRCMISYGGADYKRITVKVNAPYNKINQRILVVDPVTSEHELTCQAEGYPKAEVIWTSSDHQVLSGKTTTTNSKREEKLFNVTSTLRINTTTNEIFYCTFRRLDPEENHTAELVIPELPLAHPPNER

| Compound | IC50 [1] | IC50 [2] | IC50 (PD-L1) | EC50 [3] |
| --- | --- | --- | --- | --- |
| Cc1c(NC(=O)c2nc3c(n2C)CCN(CCc2ccc(C(=O)O)cc2)C3)cccc1-c1cccc(NC(=O)c2nc3c(n2C)CCN(CCC24CCC(C(=O)O)(CC2)C4)C3)c1Cl [Example 36, 4-(2-(2-((3′-(5-(4-carboxyphenethyl)-1-methyl-4,5,6,7-tetrahydro-1H-imidazo[4,5-c]pyridine-2-carboxamido)-2-chloro-2′-methyl-[1,1′-biphenyl]-3-yl)carbamoyl)-1-methyl-1,4,6,7-tetrahydro-5H-imidazo[4,5-c]pyridin-5-yl)ethyl)bicyclo[2.2.1]heptane-1-carboxylic acid] | ≤ 0.005 µM | ≤ 0.01 µM | 0.01 to 0.1 µM | 0.01 to 0.1 µM |
| Cc1c(NC(=O)c2nc3c(n2C)CCN(CCC24CCC(C(=O)O)(CC2)C4)C3)cccc1-c1cccc(NC(=O)c2nc3c(n2C)CCN(C2CCN(C(N)=O)CC2)C3)c1Cl [Example 40, 4-(2-(2-((3′-(5-(1-carbamoylpiperidin-4-yl)-1-methyl-4,5,6,7-tetrahydro-1H-imidazo[4,5-c]pyridine-2-carboxamido)-2′-chloro-2-methyl[1,1′-biphenyl]-3-yl)carbamoyl)-1-methyl-1,4,6,7-tetrahydro-5H-imidazo[4,5-c]pyridin-5-yl)ethyl)bicyclo[2.2.1]heptane-1-carboxylic acid] | ≤ 0.005 µM | ≤ 0.01 µM | 0.01 to 0.1 µM | 0.01 to 0.1 µM |
| Cc1c(NC(=O)c2nc3c(n2C)CCN(CCC24CCC(C(=O)O)(CC2)C4)C3)cccc1-c1cccc(NC(=O)c2nc3c(n2C)CCN(CC24CCC(C(=O)O)(CC2)C4)C3)c1Cl [Example 44, 4-((2-((3′-(5-(2-(4-carboxybicyclo[2.2.1]heptan-1-yl)ethyl)-1-methyl-4,5,6,7-tetrahydro-1H-imidazo[4,5-c]pyridine-2-carboxamido)-2-chloro-2′-methyl-[1,1′-biphenyl]-3-yl)carbamoyl)-1-methyl-1,4,6,7-tetrahydro-5H-imidazo[4,5-c]pyridin-5-yl)methyl)bicyclo[2.2.1]heptane-1-carboxylic acid] | ≤ 0.005 µM | ≤ 0.01 µM | 0.1 to 0.5 µM | 0.01 to 0.1 µM |
| Cc1c(NC(=O)c2nc3c(n2C)CCN(CCC24CCC(C(=O)O)(CC2)C4)C3)cccc1-c1cccc(NC(=O)c2nc3c(n2C)CCN(CCc2ccc(C(=O)O)cc2)C3)c1Cl [Example 45, 4-(2-(2-((3′-(5-(4-carboxyphenethyl)-1-methyl-4,5,6,7-tetrahydro-1H-imidazo[4,5-c]pyridine-2-carboxamido)-2′-chloro-2-methyl-[1,1′-biphenyl]-3-yl)carbamoyl)-1-methyl-1,4,6,7-tetrahydro-5H-imidazo[4,5-c]pyridin-5-yl)ethyl)bicyclo[2.2.1]heptane-1-carboxylic acid] | 0.005 to 0.01 µM | ≤ 0.01 µM | 0.1 to 0.5 µM | 0.01 to 0.1 µM |
| Cn1c(C(=O)Nc2cccc(-c3cccc(NC(=O)c4nc5c(n4C)CCN(CCC46CCC(C(=O)O)(CC4)C6)C5)c3C#N)c2Cl)nc2c1CCN(CCC13CCC(C(=O)O)(CC1)C3)C2 [Example 51, 4,4′-(((((2-chloro-2′-cyano-[1,1′-biphenyl]-3,3′-diyl)bis(azanediyl))bis(carbonyl))bis(1-methyl-1,4,6,7-tetrahydro-5H-imidazo[4,5-c]pyridine-2,5-diyl))bis(ethane-2,1-diyl))bis(bicyclo[2.2.1]heptane-1-carboxylic acid)] | ≤ 0.005 µM | ≤ 0.01 µM | 0.01 to 0.1 µM | 0.01 to 0.1 µM |
| Cc1c(NC(=O)c2nc3c(n2C)CCN(CCC24CCC(C(=O)O)(CC2)C4)C3)cccc1-c1cccc(NC(=O)c2nc3c(n2C)CCN(CCC24CCC(C(=O)O)(CC2)C4)C3)c1C [Example 54, 4,4′-(((((2,2′-dimethyl-[1,1′-biphenyl]-3,3′-diyl)bis(azanediyl))bis(carbonyl))bis(1-methyl-1,4,6,7-tetrahydro-5H-imidazo[4,5-c]pyridine-2,5-diyl))bis(ethane-2,1-diyl))bis(bicyclo[2.2.1]heptane-1-carboxylic acid)] | ≤ 0.005 µM | ≤ 0.01 µM | 0.1 to 0.5 µM | 0.01 to 0.1 µM |
| Cc1c(NC(=O)c2nc3c(n2C)CCN(CCC24CCC(C(=O)O)(CC2)C4)C3)cccc1-c1cccc(NC(=O)c2nc3c(n2C)CCN(C2CCOCC2)C3)c1C [Example 56, 4-(2-(2-((2,2′-dimethyl-3′-(1-methyl-5-(tetrahydro-2H-pyran-4-yl)-4,5,6,7-tetrahydro-1H-imidazo[4,5-c]pyridine-2-carboxamido)-[1,1′-biphenyl]-3-yl)carbamoyl)-1-methyl-1,4,6,7-tetrahydro-5H-imidazo[4,5-c]pyridin-5-yl)ethyl)bicyclo[2.2.1]heptane-1-carboxylic acid] | ≤ 0.005 µM | ≤ 0.01 µM | 0.1 to 0.5 µM | 0.01 to 0.1 µM |
| Cc1c(NC(=O)c2nc3c(n2C)CCN(CCC24CCC(C(=O)O)(CC2)C4)C3)cccc1-c1cccc(NC(=O)c2nc3c(n2C)CCN(C[C@@H](C)O)C3)c1C [Example 57, (R)-4-(2-(2-((3′-(5-(2-hydroxypropyl)-1-methyl-4,5,6,7-tetrahydro-1H-imidazo[4,5-c]pyridine-2-carboxamido)-2,2′-dimethyl-[1,1′-biphenyl]-3-yl)carbamoyl)-1-methyl-1,4,6,7-tetrahydro-5H-imidazo[4,5-c]pyridin-5-yl)ethyl)bicyclo[2.2.1]heptane-1-carboxylic Acid] | ≤ 0.005 µM | ≤ 0.01 µM | 0.01 to 0.1 µM | 0.01 to 0.1 µM |

More lines, main results first:

| IC50 [1] | IC50 [2] | IC50 (PD-L1) | Compound | EC50 [3] |
| --- | --- | --- | --- | --- |
| ≤ 0.005 µM | ≤ 0.01 µM | 0.01 to 0.1 µM | Cc1c(NC(=O)c2nc3c(n2C)CCN(CCC24CCC(C(=O)O)(CC2)C4)C3)cccc1-c1cccc(NC(=O)c2nc3c(n2C)CCNC3)c1Cl [Example 37, 4-(2-(2-((2′-chloro-2-methyl-3′-(1-methyl-4,5,6,7-tetrahydro-1H-imidazo[4,5-c]pyridine-2-carboxamido)-[1,1′-biphenyl]-3-yl)carbamoyl)-1-methyl-1,4,6,7-tetrahydro-5H-imidazo[4,5-c]pyridin-5-yl)ethyl)bicyclo[2.2.1]heptane-1-carboxylic Acid] | 0.01 to 0.1 µM |
| ≤ 0.005 µM | ≤ 0.01 µM | 0.01 to 0.1 µM | Cc1c(NC(=O)c2nc3c(n2C)CCN(CCC24CCC(C(=O)O)(CC2)C4)C3)cccc1-c1cccc(NC(=O)c2nc3c(n2C)CCN(C2CCOCC2)C3)c1Cl [Example 38, 4-(2-(2-((2′-chloro-2-methyl-3′-(1-methyl-5-(tetrahydro-2H-pyran-4-yl)-4,5,6,7-tetrahydro-1H-imidazo[4,5-c]pyridine-2-carboxamido)-[1,1′-biphenyl]-3-yl)carbamoyl)-1-methyl-1,4,6,7-tetrahydro-5H-imidazo[4,5-c]pyridin-5-yl)ethyl)bicyclo[2.2.1]heptane-1-carboxylic acid] | 0.01 to 0.1 µM |
| ≤ 0.005 µM | ≤ 0.01 µM | 0.01 to 0.1 µM | Cc1c(NC(=O)c2nc3c(n2C)CCN(CCC24CCC(C(=O)O)(CC2)C4)C3)cccc1-c1cccc(NC(=O)c2nc3c(n2C)CCN(C[C@@H](C)O)C3)c1Cl [Example 41, (R)-4-(2-(2-((2′-chloro-3′-(5-(2-hydroxypropyl)-1-methyl-4,5,6,7-tetrahydro-1H-imidazo[4,5-c]pyridine-2-carboxamido)-2-methyl-[1,1′-biphenyl]-3-yl)carbamoyl)-1-methyl-1,4,6,7-tetrahydro-5H-imidazo[4,5-c]pyridin-5-yl)ethyl)bicyclo[2.2.1]heptane-1-carboxylic Acid] | 0.01 to 0.1 µM |
| ≤ 0.005 µM | ≤ 0.01 µM | 0.01 to 0.1 µM | Cc1c(NC(=O)c2nc3c(n2C)CCN(CCC24CCC(C(=O)O)(CC2)C4)C3)cccc1-c1cccc(NC(=O)c2nc3c(n2C)CCN(C[C@H](C)O)C3)c1Cl [Example 42, (S)-4-(2-(2-((2′-chloro-3′-(5-(2-hydroxypropyl)-1-methyl-4,5,6,7-tetrahydro-1H-imidazo[4,5-c]pyridine-2-carboxamido)-2-methyl-[1,1′-biphenyl]-3-yl)carbamoyl)-1-methyl-1,4,6,7-tetrahydro-5H-imidazo[4,5-c]pyridin-5-yl)ethyl)bicyclo[2.2.1]heptane-1-carboxylic acid] | 0.01 to 0.1 µM |
| ≤ 0.005 µM | ≤ 0.01 µM | 0.01 to 0.1 µM | Cc1c(NC(=O)c2nc3c(n2C)CCN(CCC24CCC(C(=O)O)(CC2)C4)C3)cccc1-c1cccc(NC(=O)c2nc3c(n2C)CCN(CCO)C3)c1Cl [Example 43, 4-(2-(2-((2′-chloro-3′-(5-(2-hydroxyethyl)-1-methyl-4,5,6,7-tetrahydro-1H-imidazo[4,5-c]pyridine-2-carboxamido)-2-methyl-[1,1′-biphenyl]-3-yl)carbamoyl)-1-methyl-1,4,6,7-tetrahydro-5H-imidazo[4,5-c]pyridin-5-yl)ethyl)bicyclo[2.2.1]heptane-1-carboxylic acid] | 0.01 to 0.1 µM |

Reference: US10618916B2, “Heterocyclic compounds as immunomodulators” (Incyte Corporation, priority 2018, dated 2020)
